Laboratory results taken from paper PMC5209718, “Piscidin-1-analogs with double L- and D-lysine residues exhibited different conformations in lipopolysaccharide but comparable anti-endotoxin activities” (Scientific Reports, 2017).
In brackets after ≈: the same amount, converted by molar mass. Where two headings read alike, the source gives them in different places. Residues, ends and D or L forms follow the SMILES beside them.

Legend:
[1] = tested on: Staphylococcus aureus (ATCC 1708 MRSA); assay: microbe, parasite or virus in culture; details: ATCC 1708
Description: (§1) Piscidin-1 and its analogs were examined for bacterial growth-inhibiting activity in liquid cultures against Gram-positive bacteria including MRSA strains and Gram-negative bacteria (Table 2). […] The therapeutic index is a parameter that signify the specificity or selectivity of antimicrobial agents towards microorganisms over mammalian cells.
(§2) Antibacterial assays with all the peptides were done in 96-well microtiter plates against different Gram-positive, Gram-negative and resistant bacteria as described earlier.

[2] = tested on: Staphylococcus aureus (ATCC 33592 Gentamycin Resistant); assay: microbe, parasite or virus in culture; details: ATCC 33592
Description: as §1, §2

[3] = tested on: Staphylococcus aureus (ATCC 700699 MRSA); assay: microbe, parasite or virus in culture; details: ATCC 700699
Description: as §1, §2

[4] = tested on: Staphylococcus aureus (ATCC 700698 MRSA); assay: microbe, parasite or virus in culture; details: ATCC 700698
Description: as §1, §2

[5] = tested on: Staphylococcus aureus (ATCC BAA-44 MRSA); assay: microbe, parasite or virus in culture; details: ATCC BAA-44
Description: as §1, §2

[6] = no LPS, BALB/c mice, data not shown
E. coli (ATCC 25922) = assay: Antibacterial activity (MIC), liquid culture in 96-well microtiter plates; assay type: cell-based; details: means of three independent experiments each in duplicate ± SD, read-out: Minimum inhibitory conc. (MIC) against bacteria 11
Description: as §1, §2

[7] = tested on: human red blood cells (hRBCs); assay type: cell-based
Description: Cytotoxic activity of piscidin-1 and its designed analogs was examined by assaying the lysis of human red blood cells (hRBCs) and the viability of murine 3T3 cells in presence of these peptides. […] Introduction of D-lysine (dK)residues instead of threonine residues at 15th & 21st positions further reduced the haemolytic activity of piscidin-1 (Fig. 1A). Overall, haemolytic activity of these peptides against hRBCs followed the order piscidin-1 > T15K-piscidin-1 > T15dK-piscidin-1 > T15,21K-piscidin-1 > T15,21dK-piscidin-1. Viability of 3T3 cells as determined by MTT assay in the presence of these peptides followed the same trend as their haemolytic activity (Fig. 1B).
Haemolytic activity of the peptides against human red blood cells in PBS was performed by assaying the ability of the peptides to lyse the hRBCs[24][48]. For this purpose, fresh human red blood cells (hRBCs) were collected in the presence of an anti-coagulant from a healthy volunteer. After washing the blood three times with PBS haemolytic activity of the peptides were determined as reported previously. Methodology of our experiment with human blood was in accordance with relevant guidelines and regulations of CSIR-central drug research institute ethics committee and was approved by it with approval No. CDRI/IEC/2014/A5. Further, informed consent was obtained from the healthy volunteer before collection of blood as per the guideline of our Institutional ethics committee.

[8] = tested on: E. coli 0111:B4 LPS-administered mice; assay: In vivo anti-LPS activity: survival of LPS-administered mice (septic shock); details: BALB/c mice, monitored 7 days; for survival of LPS-administered mice: n = 5
Description: Septic shock in BALB/c mice was induced by intraperitoneal (i.p.) injection of E. coli LPS (12 mg/kg) followed by i.p. injection of T15,21K-piscidin-1 (0.5 mg/Kg) or T15,21dK-piscidin-1 (1 mg/Kg) or polymyxin B (1 mg/Kg) ~5 min later. Mice treated with only saline was taken as control. Survival of the animals (n = 5) was monitored for 7 days (***p < 0.0001, log-rank test).
Polymyxin B was taken as the positive control and the experiments were performed as reported earlier[14][30][31].
In vivo studies, treat ment of Mice
Female BALB/c mice (National laboratory animal centre, central drug research institute,
Lucknow) we re given a s tandard laborato r y diet an d water ad libitum and housed under controlled
environmental conditions. The mice wer e approx imatel y 25 g each at the st art of experiments. All
the mice were divided into experimental groups for the administration of LPS and peptides. Mice
were treated with 12 m g/ kg E. coli 0111: B4 LPS i n presen ce and in absen ce of peptide in different
experimental groups. The mice treated with saline onl y, in absence of LP S were considered as
experimental controls. To study the efficacy of a peptide in neutralizing LPS-induced pro-
inflammatory responses in mice ~5 min post LPS treatment, the respective peptide was
administered i.p. at a site other than the one, used for LPS injection. […] Survival of mice was
monitored for 7 da ys. Survival of mice was also mo nitored following th e treatment of onl y p eptides
for investigating their toxic effects.

[9] = tested on: Staphylococcus aureus (ATCC 29213); assay: microbe, parasite or virus in culture; assay type: cell-based; details: ATCC 29213
Description: as §1, §2

[10] = tested on: Staphylococcus aureus (ATCC 25923); assay: microbe, parasite or virus in culture; assay type: cell-based; details: ATCC 25923
Description: as §1, §2

[11] = tested on: P. aeruginosa (ATCC BAA-427); assay: microbe, parasite or virus in culture; assay type: cell-based; details: ATCC BAA-427
Description: as §1, §2

B. subtilis (ATCC 6633) = assay: microbe, parasite or virus in culture; assay type: cell-based; details: ATCC 6633
Description: as §1, §2

[12] = tested on: K. pneumoniae (ATCC 27736); assay: microbe, parasite or virus in culture; assay type: cell-based; details: ATCC 27736
Description: as §1, §2

Molecule | Minimum inhibitory conc. (MIC) against bacteria 7 [1] [µM] | Minimum inhibitory conc. (MIC) against bacteria 4 [2] [µM] | Minimum inhibitory conc. (MIC) against bacteria 3 [3] [µM] | Minimum inhibitory conc. (MIC) against bacteria 6 [4] [µM] | Minimum inhibitory conc. (MIC) against bacteria 5 [5] [µM] | survival of control mice treated only with peptide ([6]; 1.0 mg/kg) [%] | MIC (E. coli (ATCC 25922)) [µM] | HC50, peptide concentration leading to 50% lysis of human RBC [7] [µM] | survival of LPS-administered mice ([8]; peptide 1.0 mg/Kg i.p. ~5 min after LPS 12.0 mg/Kg i.p.) [%] | mortality rate of LPS-administered mice ([8]; single dose 1.0 mg/kg i.p. after LPS 12 mg/kg) | Minimum inhibitory conc. (MIC) against bacteria 2 [9] [µM] | Minimum inhibitory conc. (MIC) against bacteria 1 [10] [µM] | Minimum inhibitory conc. (MIC) against bacteria 8 [11] [µM] | Minimum inhibitory conc. (MIC) against bacteria 9 (B. subtilis (ATCC 6633)) [µM] | Minimum inhibitory conc. (MIC) against bacteria 10 [12] [µM] | survival of control mice treated only with peptide ([6]; 0.5 mg/kg) [%] | survival of LPS-administered mice ([8]; peptide 0.5 mg/Kg i.p. ~5 min after LPS 12.0 mg/Kg i.p.) [%] | mortality rate of LPS-administered mice ([8]; single dose 0.5 mg/kg i.p. after LPS 12 mg/kg)
CC[C@H](C)[C@H](NC(=O)CNC(=O)[C@H](CCCNC(=N)N)NC(=O)[C@H](Cc1ccccc1)NC(=O)[C@@H](NC(=O)[C@H](Cc1c[nH]cn1)NC(=O)[C@H](Cc1c[nH]cn1)NC(=O)[C@H](Cc1ccccc1)NC(=O)[C@@H](N)Cc1ccccc1)[C@@H](C)CC)C(=O)N[C@H](C(=O)N[C@@H](Cc1c[nH]cn1)C(=O)N[C@H](C(=O)NCC(=O)N[C@@H](CCCCN)C(=O)N[C@H](CCCCN)C(=O)N[C@H](C(=O)N[C@@H](Cc1c[nH]cn1)C(=O)N[C@@H](CCCNC(=N)N)C(=O)N[C@@H](CC(C)C)C(=O)N[C@H](C(=O)N[C@H](CCCCN)C(=O)NCC(N)=O)C(C)C)[C@@H](C)CC)C(C)C)C(C)C [T15,21dK Piscidin-1] (HELM PEPTIDE1{F.F.H.H.I.F.R.G.I.V.H.V.G.K.[dK].I.H.R.L.V.[dK].G.[am]}$$$$V2.0) | 5.0 ± 0.7 (≈ 13.1 µg/mL) | 5.0 ± 0.7 (≈ 13.1 µg/mL) | 10.0 ± 1.4 (≈ 26.3 µg/mL) | 10.0 ± 1.4 (≈ 26.3 µg/mL) | 5.0 ± 0.7 (≈ 13.1 µg/mL) | 100 | 5.0 (≈ 13.1 µg/mL) | 500 | 100 | zero | 5.0 ± 0.7 (≈ 13.1 µg/mL) | 5.0 ± 0.7 (≈ 13.1 µg/mL) | 9.0 ± 1.3 (≈ 23.6 µg/mL) | 9.0 ± 1.3 (≈ 23.6 µg/mL) | 5.0 ± 0.7 (≈ 13.1 µg/mL) | – | – | –
H-FFHHIFRGIVHVGKKIHRLVKG-NH2 [T15,21K Piscidin-1] | 1.25 ± 0.3 | 2.5 ± 0.4 | 2.5 ± 0.4 | 2.5 ± 0.4 | 1.25 ± 0.3 | – | 2.0 | 200 | – | – | 2.5 ± 0.4 | 1.25 ± 0.3 | 5.0 ± 0.7 | 5.0 ± 0.7 | 3.0 ± 0.4 | 100 | 100 | zero
